Data published in patent US20220168427A1 (Ranok Therapeutics (Hangzhou) Co. Ltd., priority 2019, published 2022).
Where a name gives a salt, the structure may show the parent alone.

Columns and labels:
HSP90α = HSP90α (Homo sapiens, UniProt P07900); experiment: HSP90α Binding Fluorescent Polarization (FP) Assay; conditions: competition with FITC-geldanamycin; read-out: HSP90 Binding Potency
Procedure: HSP90α Binding Fluorescent Polarization (FP) Assay
A master mix was prepared with assay buffer, BSA and FITC-geldanamycin. In a 96-well plate, a serial 3-fold dilution of each compound was prepared ranging from 40 μM down until 2.0 nM. Also in a 96-well plate, recombinant HSP90α protein was diluted to 28 μg/ml. Then, in a 384-well plate, 10 μl of master mix and 5 μl of compound dilution were added per well to duplicate wells and mixed by brief shaking. Then 5 μl of diluted HSP90α protein was added per well, mixed by brief shaking, incubated at 25° C. for 30, 60 and 120 min and fluorescence was measured on an EnVision Plate Reader. Background-subtracted mP values were calculated from EnVision raw data and a four-parameter “log[inhibitor] vs. response” curve was fitted using GraphPad Prism 7.0.

BRD4 (BD1+BD2) = target: T1, BRD4 (BD1+BD2) (Homo sapiens, UniProt O60885); conditions: read-out: BRD4 Binding Potency
T1 construct: 1.8 μg/ml recombinant BRD4 (BD1+BD2 domains) protein
Procedure: A master mix was prepared with assay buffer, 1.8 μg/ml recombinant BRD4 (BD1+BD2 domains) protein, and 200-fold dilutions of Tb-labeled donor and dye-labeled acceptor. 40-fold dilutions of acetylated and non-acetylated ligands were prepared in 1×BRD TR-FRET assay buffer. Also, a serial 3-fold dilution of each compound was prepared ranging from 40 μM down until 2.0 nM. In a 384-well plate, 5 μl diluted ligand and 5 μl of compound dilution were added per well to duplicate wells and mixed by brief shaking. Then 10 μl of master mix was added per well, mixed by brief shaking, incubated at 25° C. for 2 hr and fluorescence was measured on an EnVision Plate Reader. The 665 nm/615 nm ratio was calculated from EnVision raw data. Data were normalized using whole-plate averages of “positive” and “negative” readings. A four-parameter “log[inhibitor] vs. response” curve was fitted using GraphPad Prism 7.0.

MV4-11 cells = experiment: MV4-11 Cell Cytotoxicity Assay; format: cell-based, human; conditions: human, MV4-11 cells, CCK-8
Excerpt: % Inhibition=100−(D−B)/(S−B)*100%.
S: The absorbance of the maximum (cells with DMSO)
B: The absorbance of the minimum (medium with DMSO)

| Compound | IC50 (HSP90α) [nM] | IC50 (BRD4 (BD1+BD2)) [nM] | IC50 at 72 h (MV4-11 cells) [nM] |
| --- | --- | --- | --- |
| Cc1sc2c(c1C)C(c1ccc(Cl)cc1)=NC(CC(=O)N[C@H](C)c1ccc(CN3CCN(Cc4ccc(-n5c(O)nnc5-c5cc(C(C)C)c(O)cc5O)cc4)CC3)cc1)c1nnc(C)n1-2 (stereo in doubt) [Compound 70, 2-((6S)-4-(4-chlorophenyl)-2,3,9-trimethyl-6H-thieno[3,2-f][1,2,4]triazolo[4,3-a][1,4]diazepin-6-yl)-N—((R)-1-(4-((4-(4-(3-(2,4-dihydroxy-5-isopropylphenyl)-5-hydroxy-4H-1,2,4-triazol-4-yl)benzyl)piperazin-1-yl)methyl)phenyl)ethyl)acetamide, trifluoroacetic acid] | 100 to 1000 | 100 to 1000 | < 100 |
| Cc1sc2c(c1C)C(c1ccc(Cl)cc1)=N[C@@H](CC(=O)NC(C)c1ccc(CN3CCC(Cc4ccc(-n5c(O)nnc5-c5cc(C(C)C)c(O)cc5O)cc4)CC3)cc1)c1nnc(C)n1-2 (stereo in doubt) [Compound 82, 2-((S)-4-(4-chlorophenyl)-2,3,9-trimethyl-6H-thieno[3,2-f][1,2,4]triazolo[4,3-a][1,4]diazepin-6-yl)-N—((R)-1-(4-((4-(4-(3-(2,4-dihydroxy-5-isopropylphenyl)-5-hydroxy-4H-1,2,4-triazol-4-yl)benzyl)piperidin-1-yl)methyl)phenyl)ethyl)acetamide hydrochloride] |  | < 100 | < 100 |
| Cc1sc2c(c1C)C(c1ccc(Cl)cc1)=NC(CC(=O)N1CCC(Cc3ccc(CN(C)Cc4ccc(-n5c(C(=O)NCC(F)(F)F)nnc5-c5cc(C(C)C)c(O)cc5O)cc4)cc3)CC1)c1nnc(C)n1-2 (stereo in doubt) [Compound 84, (S)-4-(4-(((4-((1-(2-(4-(4-chlorophenyl)-2,3,9-trimethyl-6H-thieno[3,2-f][1,2,4]triazolo[4,3-a][1,4]diazepin-6-yl)acetyl)piperidin-4-yl)methyl)benzyl)(methyl)amino)methyl)phenyl)-5-(2,4-dihydroxy-5-isopropylphenyl)-N-(2,2,2-trifluoroethyl)-4H-1,2,4-triazole-3-carboxamide, trifluoroacetic acid] | 100 to 1000 | > 1000 | < 100 |
| Cc1sc2c(c1C)C(c1ccc(Cl)cc1)=N[C@@H](CC(=O)NCCOCCN[C@@H](C)C(=O)NC(C(=O)N1CCC[C@H]1C(=O)Nc1snnc1-c1ccccc1)C1CCCCC1)c1nnc(C)n1-2 (stereo in doubt) [Compound 127, (S)-1-((2S,5S)-14-((S)-4-(4-chlorophenyl)-2,3,9-trimethyl-6H-thieno[3,2-f][1,2,4]triazolo[4,3-a][1,4]diazepin-6-yl)-2-cyclohexyl-5-methyl-4,13-dioxo-9-oxa-3,6,12-triazatetradecanoyl)-N-(4-phenyl-1,2,3-thiadiazol-5-yl)pyrrolidine-2-carboxamide] | > 1000 | 100 to 1000 | 100 to 1000 |
| CCc1cc(-c2nnc(O)n2-c2ccc(CN3CCN(CC4CCN(C(=O)C[C@@H]5N=C(c6ccc(Cl)cc6)c6c(sc(C)c6C)-n6c(C)nnc65)CC4)CC3)cc2)c(O)cc1O [Compound 1, 2-((6S)-4-(4-chlorophenyl)-2,3,9-trimethyl-6H-thieno[3,2-f][1,2,4]triazolo[4,3-a][1,4]diazepin-6-yl)-1-(4-((4-(4-(3-(5-ethyl-2,4-dihydroxyphenyl)-5-hydroxy-4H-1,2,4-triazol-4-yl)benzyl)piperazin-1-yl)methyl)piperidin-1-yl)ethanone] | 100 to 1000 | 100 to 1000 |  |
| CCc1cc(-c2nnc(O)n2-c2ccc(CN3CCN(CC4CCN(CC[C@@H]5N=C(c6ccc(Cl)cc6)c6c(sc(C)c6C)-n6c(C)nnc65)CC4)CC3)cc2)c(O)cc1O [Compound 2, 4-(4-(4-((4-((1-(2-((6S)-4-(4-chlorophenyl)-2,3,9-trimethyl-6H-thieno[3,2-f][1,2,4]triazolo[4,3-a][1,4]diazepin-6-yl)ethyl)piperidin-4-yl)methyl)piperazin-1-yl)methyl)phenyl)-5-hydroxy-4H-1,2,4-triazol-3-yl)-6-ethylbenzene-1,3-diol, trifluoroacetic acid] | < 100 | > 1000 | 100 to 1000 |
| Cc1sc2c(c1C)C(c1ccc(Cl)cc1)=N[C@@H](CC(=O)N1CCC(Cc3ccc(-n4c(O)nnc4-c4cc(C(C)C)c(O)cc4O)cc3)CC1)c1nnc(C)n1-2 [Compound 3, 2-((6S)-4-(4-chlorophenyl)-2,3,9-trimethyl-6H-thieno[3,2-f][1,2,4]triazolo[4,3-a][1,4]diazepin-6-yl)-1-(4-(4-(3-(2,4-dihydroxy-5-isopropylphenyl)-5-hydroxy-4H-1,2,4-triazol-4-yl)benzyl)piperidin-1-yl)ethanone, trifluoroacetic acid] | 100 to 1000 | > 1000 | < 100 |
| Cc1sc2c(c1C)C(c1ccc(Cl)cc1)=N[C@@H](CC(=O)N1CCC(CN3CCN(Cc4ccc(-n5c(O)nnc5-c5ccc(O)cc5O)cc4)CC3)CC1)c1nnc(C)n1-2 [Compound 4, 2-((6S)-4-(4-chlorophenyl)-2,3,9-trimethyl-6H-thieno[3,2-f][1,2,4]triazolo[4,3-a][1,4]diazepin-6-yl)-1-(4-((4-(4-(3-(2,4-dihydroxyphenyl)-5-hydroxy-4H-1,2,4-triazol-4-yl)benzyl)piperazin-1-yl)methyl)piperidin-1-yl)ethanone, trifluoroacetic acid] | > 1000 | < 100 | 100 to 1000 |
| CCn1c(=O)/c(=C2\Sc3ccccc3N2C)s/c1=C\c1cccc[n+]1CCCNC(=O)C[C@@H]1N=C(c2ccc(Cl)cc2)c2c(sc(C)c2C)-n2c(C)nnc21 [Compound 7, 1-(3-(2-((6S)-4-(4-chlorophenyl)-2,3,9-trimethyl-6H-thieno[3,2-f][1,2,4]triazolo[4,3-a][1,4]diazepin-6-yl)acetamido)propyl)-2-((Z)-((E)-3-ethyl-5-(3-methylbenzo[d]thiazol-2(3H)-ylidene)-4-oxothiazolidin-2-ylidene)methyl)pyridin-1-ium chloride] | > 1000 | < 100 | 100 to 1000 |
| CCNC(=O)c1noc(-c2cc(C(C)C)c(O)cc2O)c1-c1ccc(CN2CCN(CC3CCN(C(=O)C[C@@H]4N=C(c5ccc(Cl)cc5)c5c(sc(C)c5C)-n5c(C)nnc54)CC3)CC2)cc1 [Compound 16, 4-(4-((4-((1-(2-((6S)-4-(4-chlorophenyl)-2,3,9-trimethyl-6H-thieno[3,2-f][1,2,4]triazolo[4,3-a][1,4]diazepin-6-yl)acetyl)piperidin-4-yl)methyl)piperazin-1-yl)methyl)phenyl)-5-(2,4-dihydroxy-5-isopropylphenyl)-N-ethylisoxazole-3-carboxamide, trifluoroacetic acid] | 100 to 1000 | 100 to 1000 |  |
| Cc1sc2c(c1C)C(c1ccc(Cl)cc1)=N[C@@H](CC(=O)N1CCC(CN3CCN(Cc4ccc(-n5c(O)nnc5-c5cc(C(C)C)c(O)cc5O)cc4)CC3)CC1)c1nnc(C)n1-2 [Compound 40, 2-((6S)-4-(4-chlorophenyl)-2,3,9-trimethyl-6H-thieno[3,2-f][1,2,4]triazolo[4,3-a][1,4]diazepin-6-yl)-1-(4-((4-(4-(3-(2,4-dihydroxy-5-isopropylphenyl)-5-hydroxy-4H-1,2,4-triazol-4-yl)benzyl)piperazin-1-yl)methyl)piperidin-1-yl)ethanone, trifluoroacetic acid] | < 100 | 100 to 1000 |  |
| CCc1cc(-c2nnc(C(N)=O)n2-c2ccc(CN3CCN(CC4CCN(C(=O)C[C@@H]5N=C(c6ccc(Cl)cc6)c6c(sc(C)c6C)-n6c(C)nnc65)CC4)CC3)cc2)c(O)cc1O [Compound 120, (S)-4-(4-((4-((1-(2-(4-(4-chlorophenyl)-2,3,9-trimethyl-6H-thieno[3,2-f][1,2,4]triazolo[4,3-a][1,4]diazepin-6-yl)acetyl)piperidin-4-yl)methyl)piperazin-1-yl)methyl)phenyl)-5-(5-ethyl-2,4-dihydroxyphenyl)-4H-1,2,4-triazole-3-carboxamide hydrochloride] | 100 to 1000 | < 100 |  |
| CCc1cc(-c2nnc(C(N)=O)n2-c2ccc(CN3CCN(CC4CCN(C(=O)C[C@@H]5N=C(c6ccc(Cl)cc6)c6c(sc(C)c6C)-n6c(C)nnc65)CC4)CC3)cc2)c(O)cc1O [Compound 121, (S)-4-(4-((4-((1-(2-(4-(4-chlorophenyl)-2,3,9-trimethyl-6H-thieno[3,2-f][1,2,4]triazolo[4,3-a][1,4]diazepin-6-yl)acetyl)piperidin-4-yl)methyl)piperazin-1-yl)methyl)phenyl)-5-(5-ethyl-2,4-dihydroxyphenyl)-4H-1,2,4-triazole-3-carboxamide hydrochloride] | < 100 | > 1000 |  |
